Series [1] relates to HBV (HepG2.117 cell line, inducibly HBV producing). The series can be described thus: Anti-HBV activity: intracellular HBV DNA by real-time PCR in HepG2.117 cells after 3 days of treatment. It is filed as cell-based, hepatitis B virus. Put shortly: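 Antiviral effect is expressed through intracellular HBV DNA levels, determined by real-time PCR with a virus-specific probe. These levels were measured after 3 days of treatment with compound dilutions, in HepG2.117 cells induced to replicate HBV.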
(Real-time PCR tracks product formation cycle by cycle.)

Series [2] in a line: in vitro. The note with it: human, HepG2 or HepG2.117 cells, ATPlite, mean value. It is filed as cell-based. The gist of the method:
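Luminescent ATP quantitation served as the viability endpoint following a 3- or 4-day incubation with test compounds.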
(ATP-based viability assays read luminescence as a measure of living cells.)

Setting [3] is: Hepatitis B virus, HepG2.117, 72 h, HepG2.117 cells, intracellular HBV DNA by real-time PCR, 3 days of treatment, mean value; read-out: EC50 (μM, mean value).
Where [4] appears, read: 3-days incubation (not marked with *).
The mark [5] stands for this setting: Hepatitis B virus, HepG2.117, 72 h, HepG2.117 cells, 3 days of treatment, intracellular HBV DNA by real-time PCR; mean value; read-out: EC50 (μM, mean value).
[6] abbreviates: 3-days incubation (unmarked values).

Where two headings read alike, the source gives them in different places.

The text below walks through data of US20230091047A1 (priority 2019, published 2023).

In general, EC50 refers to the concentration that produces a half-maximal response. A word on the CC50: it is the concentration giving 50% cytotoxicity. On to `CNC(=O)c1cc(-n2c(N[C@@H](C)c3ccc(F)cc3)nc3c(c2=O)C[C@@H](C)N(C(=O)c2ccc(Cl)c(Cl)c2)C3)nn1C` [Compound C624], for which the EC50 in series [1] (setting [3]) was found to be 0.06 µM. In series [2] (setting [4]), this compound showed a CC50 at 3 days greater than 50 µM.
For `CNC(=O)c1ccc(-n2c(OC(C)C)nc3c(c2=O)C[C@@H](C)N(C(=O)c2ccc(Cl)c(Cl)c2)C3)c(Cl)c1` [Compound C403a], in that order: 0.06 µM and 36.7 µM.
For `CC(C)Nc1nc2c(c(=O)n1-c1ccc(C(=O)NC3CC3)cc1)C[C@@H](C)N(C(=O)c1ccc(Cl)c(C(F)F)c1)C2` [Compound C681], in that order: 0.04 µM and greater than 50 µM.
On to `CNC(=O)c1ccc(-n2c(NC34CC(C3)C4)nc3c(c2=O)C[C@@H](C)N(C(=O)c2ccc(Cl)c(Cl)c2)C3)cc1` [Compound C251, 4-[(6R)-2-[(bicyclo[1.1.1]pentan-1-yl)amino]-7-(3,4-dichlorobenzoyl)-6-methyl-4-oxo-5,6,7,8-tetrahydropyrido[3,4-d]pyrimidin-3(4H)-yl]-N-methylbenzamide], for which, in series [1] (setting [5]), the EC50 amounted to 0.25 µM. In series [2] (setting [6]), this compound showed a CC50 at 3 days greater than 50 µM.
The corresponding values for `CC(C)NC(=O)c1ccc(-n2c(NC(C)C)nc3c(c2=O)C[C@@H](C)N(C(=O)c2ccc(Cl)c(Cl)c2)C3)cc1` [Compound C178, 4-[(6R)-7-(3,4-dichlorobenzoyl)-6-methyl-4-oxo-2-[(propan-2-yl)amino]-5,6,7,8-tetrahydropyrido[3,4-d]pyrimidin-3(4H)-yl]-N-(propan-2-yl)benzamide] are 0.04 µM and greater than 50 µM.
Take `CC(C)Nc1nc2c(c(=O)n1-c1ccc(S(C)(=O)=O)cc1)C[C@@H](C)N(C(=O)c1ccc(Cl)c(Cl)c1)C2` [Compound C100A, (6R)-7-(3,4-dichlorobenzoyl)-3-[4-(methanesulfonyl)phenyl]-6-methyl-2-[(propan-2-yl)amino]-5,6,7,8-tetrahydropyrido[3,4-d]pyrimidin-4(3H)-one]: the EC50 in series [1] (HepG2.117 cells, 3 days of treatment, intracellular HBV DNA by real-time PCR; mean value; read-out: EC50 (μM, mean value)) amounted to 0.27 µM. In addition, in series [2] (setting [6]), the CC50 at 3 days was greater than 50 µM.
As for `Cc1nnc(-c2ccc(-n3c(NC(C)C)nc4c(c3=O)C[C@@H](C)N(C(=O)c3ccc(Cl)c(Cl)c3)C4)cc2)s1` [Compound C245, (6R)-7-(3,4-dichlorobenzoyl)-6-methyl-3-[4-(5-methyl-1,3,4-thiadiazol-2-yl)phenyl]-2-[(propan-2-yl)amino]-5,6,7,8-tetrahydropyrido[3,4-d]pyrimidin-4(3H)-one], the EC50 in series [1] (setting [5]) turned out to be 0.17 µM. The CC50 at 3 days in series [2] (setting [6]) is greater than 50 µM.
For the compound `CNC(=O)c1ccc(-n2c(NCc3cnnn3C)nc3c(c2=O)C[C@@H](C)N(C(=O)c2ccc(Cl)c(Cl)c2)C3)cc1` [Compound C557], the EC50 in series [1] (setting [3]) is greater than 25 µM. In addition, the CC50 at 3 days in series [2] (setting [4]) is greater than 50 µM.
As to `CNC(=O)c1ccc(-n2c(NCc3ccc(-c4nc[nH]n4)cc3)nc3c(c2=O)C[C@@H](C)N(C(=O)c2ccc(Cl)c(Cl)c2)C3)cc1` [Compound C468], in series [1] (setting [3]), the EC50 is 18.8 µM. For the same compound, the CC50 at 3 days in series [2] (setting [4]) is greater than 50 µM.
As for `CNC(=O)c1ccc(-n2c(N3CC[C@@H]3C)nc3c(c2=O)C[C@@H](C)N(C(=O)c2ccc(Cl)c(Cl)c2)C3)cc1` (single isomer, unassigned) [Compound C312, 4-[(6R)-7-(3,4-dichlorobenzoyl)-6-methyl-2-[(2*S)-2-methylazetidin-1-yl]-4-oxo-5,6,7,8-tetrahydropyrido[3,4-d]pyrimidin-3(4H)-yl]-N-methylbenzamide], the EC50 in series [1] (setting [5]) was found to be 0.26 µM. Further, the CC50 at 3 days in series [2] (setting [6]) is greater than 50 µM.
The corresponding values for `COc1ccc(CNc2nc3c(c(=O)[nH]2)CCN(C(=O)c2ccc4occc4c2)C3)cc1` [Compound C81, 7-(1-benzofuran-5-carbonyl)-2-{[(4-methoxyphenyl)methyl]amino}-5,6,7,8-tetrahydropyrido[3,4-d]pyrimidin-4(3H)-one] are 4.49 µM and greater than 50 µM.
On to `CNC(=O)c1ccc(-n2c(NC(C)C)nc3c(c2=O)C[C@@H](C)N(C(=O)c2ccc(Cl)c(C(F)(F)F)c2)C3)c(C2CC2)c1` [Compound C661], for which, in series [1] (setting [3]), the EC50 stood at 0.07 µM. The compound also registered a CC50 at 3 days in series [2] (setting [4]) of 25 µM.
The corresponding values for `CNC(=O)c1ccc(-n2c(NC(C)C)nc3c(c2=O)C[C@@H](C)N(C(=O)c2cc4c(Cl)c(Cl)ccc4[nH]2)C3)cc1` [Compound C566] are 0.03 µM and 6.8 µM.
For `CNC(=O)c1ccc(-n2c(NC(C)C)nc3c(c2=O)C[C@@H](C)N(C(=O)c2ccc(Cl)c(C)c2)C3)cc1` [Compound C429], in that order: 0.06 µM and greater than 50 µM.
Turning to `COc1ccc(CNc2nc3c(c(=O)[nH]2)CCN(C(=O)c2ccc(I)cc2)C3)cc1` [Compound C117, 7-(4-iodobenzoyl)-2-{[(4-methoxyphenyl)methyl]amino}-5,6,7,8-tetrahydropyrido[3,4-d]pyrimidin-4(3H)-one], the EC50 in series [1] (setting [5]) is 9.61 µM. In series [2] (setting [6]), this compound displayed a CC50 at 3 days of 43.5 µM.
For the compound `COc1ccc(CNc2nc3c(c(=O)n2-c2cccc(OC)c2)CCN(C(=O)c2ccc(Cl)c(Cl)c2)C3)cc1` [Compound C8, 7-(3,4-dichlorobenzoyl)-3-(3-methoxyphenyl)-2-{[(4-methoxyphenyl)methyl]amino}-5,6,7,8-tetrahydropyrido[3,4-d]pyrimidin-4(3H)-one], the EC50 in series [1] (setting [5]) was 1 µM. The compound also showed a CC50 at 3 days in series [2] (setting [6]) greater than 50 µM.
As for `CNC(=O)c1cc(-n2c(NC(C)C)nc3c(c2=O)C[C@@H](C)N(C(=O)c2ccc(Cl)c(C(F)(F)F)c2)C3)n(C)n1` [Compound C645], in series [1] (setting [3]), the EC50 was determined as 0.04 µM. In series [2] (setting [4]), this compound yielded a CC50 at 3 days greater than 50 µM.
For `CNC(=O)c1ccc(-n2c(NC(C)C)nc3c(c2=O)C[C@@H](C)N(C(=O)c2cc(C#N)c[nH]2)C3)cc1` [Compound C496], in that order: greater than 25 µM and greater than 50 µM.
The corresponding values for `CNC(=O)c1ccc(-n2c(N[C@@H](C)c3ccc(OC)c(F)c3)nc3c(c2=O)C[C@@H](C)N(C(=O)c2ccc(Cl)c(Cl)c2)C3)cc1` (single isomer, unassigned) [Compound C416b] are 0.06 µM and 34.5 µM.
`CNC(=O)c1ccc(-n2c(NC(C)C)nc3c(c2=O)C[C@@H](C)N(C(=O)c2cc4c(Br)cc(Cl)cc4[nH]2)C3)cc1` [Compound C576]: the EC50 in series [1] (setting [3]) stood at 0.05 µM. Also, the CC50 at 3 days in series [2] (setting [4]) is greater than 50 µM.
Regarding `CC(C)Nc1nc2c(c(=O)n1-c1ccc3c(c1)CNC3=O)C[C@@H](C)N(C(=O)c1ccc(Cl)c(Cl)c1)C2` [Compound C231, (6R)-7-(3,4-dichlorobenzoyl)-6-methyl-3-(1-oxo-2,3-dihydro-1H-isoindol-5-yl)-2-[(propan-2-yl)amino]-5,6,7,8-tetrahydropyrido[3,4-d]pyrimidin-4(3H)-one], the concentration for a half-maximal effect (EC50) in series [1] (setting [5]) was 0.15 µM. In addition, in series [2] (setting [6]), the CC50 at 3 days is greater than 50 µM.
With `CNC(=O)c1ccc(-n2c(NC(C)C)nc3c(c2=O)C[C@@H](C)N(C(=O)c2cc4ccc(OC)cc4s2)C3)cc1` [Compound C524], the EC50 in series [1] (setting [3]) worked out at 1.36 µM. Also, in series [2] (setting [4]), the CC50 at 3 days is greater than 50 µM.
For the compound `CC(C)Nc1nc2c(c(=O)n1-c1ccc3c(c1)CC(=O)N3)C[C@@H](C)N(C(=O)c1ccc(Cl)c(Cl)c1)C2` [Compound C206, (6R)-7-(3,4-dichlorobenzoyl)-6-methyl-3-(2-oxo-2,3-dihydro-1H-indol-5-yl)-2-[(propan-2-yl)amino]-5,6,7,8-tetrahydropyrido[3,4-d]pyrimidin-4(3H)-one], the EC50 in series [1] (setting [5]) stood at 0.16 µM. Half-maximal cytotoxicity in series [2] (setting [6]) (CC50 at 3 days) was put at 48.9 µM.
`CNC(=O)c1ccc(-n2c(NC(C)C)nc3c(c2=O)C[C@@H](C)N(C(=O)c2ccc(OC(F)(F)F)c(Cl)c2)C3)cc1` [Compound C525]: the EC50 in series [1] (setting [3]) was determined as 0.15 µM. In addition, in series [2] (setting [4]), the CC50 at 3 days was greater than 50 µM.
With `COc1ccc(CNc2nc3c(c(=O)n2-c2ccc(C(C)=O)cc2)CCN(C(=O)c2ccc(Cl)c(Cl)c2)C3)cc1` [Compound C126, 3-(4-acetylphenyl)-7-(3,4-dichlorobenzoyl)-2-{[(4-methoxyphenyl)methyl]amino}-5,6,7,8-tetrahydropyrido[3,4-d]pyrimidin-4(3H)-one], the EC50 in series [1] (setting [5]) came to 1.51 µM. Further, in series [2] (setting [6]), the CC50 at 3 days was greater than 50 µM.
For `CC(C)NC(=O)c1cnc(-n2c(NC(C)C)nc3c(c2=O)C[C@@H](C)N(C(=O)c2ccc(Cl)c(Cl)c2)C3)nc1` [Compound C382], the EC50 in series [1] (setting [3]) is 0.05 µM. This compound also had a CC50 at 3 days in series [2] (setting [4]) greater than 50 µM.
As to `CNC(=O)c1ccc(-n2c(N[C@H]3CC3(C)C)nc3c(c2=O)C[C@@H](C)N(C(=O)c2ccc(Cl)c(Cl)c2)C3)cc1` [Compound C334, 4-[(6R)-7-(3,4-dichlorobenzoyl)-2-{[(1S)-2,2-dimethylcyclopropyl]amino}-6-methyl-4-oxo-5,6,7,8-tetrahydropyrido[3,4-d]pyrimidin-3(4H)-yl]-N-methylbenzamide], the EC50 in series [1] (setting [5]) came to 1.89 µM. Moreover, the CC50 at 3 days in series [2] (setting [6]) is greater than 50 µM.
As for `CC(C)Nc1nc2c(c(=O)n1-c1ccc(S(C)(=O)=O)cc1)CCN(C(=O)c1ccc3occc3c1)C2` [Compound C132, 7-(1-benzofuran-5-carbonyl)-3-[4-(methanesulfonyl)phenyl]-2-[(propan-2-yl)amino]-5,6,7,8-tetrahydropyrido[3,4-d]pyrimidin-4(3H)-one], in series [1] (setting [5]), the EC50 is 0.7 µM. In series [2] (setting [6]), this compound registered a CC50 at 3 days greater than 50 µM.
The corresponding values for `COc1ccc(CNc2nc3c(c(=O)n2-c2ccc(C(N)=O)cc2)CCN(C(=O)c2ccc(Cl)c(Cl)c2)C3)cc1` [Compound C149, 4-[7-(3,4-dichlorobenzoyl)-2-{[(4-methoxyphenyl)methyl]amino}-4-oxo-5,6,7,8-tetrahydropyrido[3,4-d]pyrimidin-3(4H)-yl]benzamide] are 1.5 µM and 23.2 µM.
